Laboratory results taken from ChEMBL document CHEMBL1134659, “Amino acid/spermine conjugates: polyamine amides as potent spermidine uptake inhibitors” (J Med Chem, 2001).

Legend:
Type in all cases: functional, cell-based
MDA-MB-231 [1] = assay: In vitro inhibition of [3H]spermidine uptake in MDA-MB-231 (Human breast cancer) cells.
MDA-MB-231 [2] = assay: In vitro inhibition of MDA-MB-231 (Human breast caner) cell growth.
MDA-MB-231 [3] = assay: Inhibition of [3H]spermidine transport into MDA-MB-231 (human breast cancer) cells.

SMILES | Ki (MDA-MB-231 [1]) | EC50 (MDA-MB-231 [2]) | Ki (MDA-MB-231 [3])
CC(C)(C)[C@H](N)C(=O)NCCCNCCCCNCCCN | 127 nM | 11000 nM | 
NCCCNCCCCNCCCNC(=O)[C@@H](N)Cc1c[nH]c2ccccc12 | 119 nM | 15000 nM | 
NCCCNCCCCNCCCNC(=O)[C@@H](N)CCCN | 47 nM | 3000 nM | 
CC(C)C[C@H](N)C(=O)NCCCNCCCCNCCCN | 46 nM | > 300000 nM | 
NCCCNCCCCNCCCNC(=O)CN | 87 nM | > 100000 nM | 
NCCCNCCCCNCCCNC(=O)CC12CC3CC(CC(C3)C1)C2 |  |  | 256 nM
CSCC[C@H](N)C(=O)NCCCNCCCCNCCCN | 65 nM | > 300000 nM | 
CC(C)[C@H](N)C(=O)NCCCNCCCCNCCCN | 84 nM | 16000 nM | 
NCCCNCCCCNCCCNC(=O)[C@H](N)Cc1c[nH]c2ccccc12 | 63 nM | 205000 nM | 
CCC(C)[C@H](N)C(=O)NCCCNCCCCNCCCN (stereo partly drawn) | 150 nM | 9000 nM | 
NCCCNCCCCNCCCNC(=O)[C@@H](N)CC(N)=O | 95 nM | 98000 nM | 
CC(C)(N)C(=O)NCCCNCCCCNCCCN | 191 nM | 8000 nM | 
NCCCNCCCCNCCCNC(=O)[C@@H](N)CO | 55 nM | 26000 nM | 
C[C@H](N)C(=O)NCCCNCCCCNCCCN | 144 nM | > 300000 nM | 
CC(=O)NCCCNCCCNCCCN |  |  | > 1000 nM
NCCCNCCCCNCCC(=O)NCCCCCNC(=O)[C@H](CC(N)=O)NC(=O)Cc1ccc(O)cc1O [JORO SPIDER TOXIN 3] |  |  | 190 nM

SMILES | Ki (MDA-MB-231 [1]) | EC50 (MDA-MB-231 [2]) | Ki (MDA-MB-231 [3])
C[C@H](O)[C@H](N)C(=O)NCCCNCCCCNCCCN | 213 nM | 6000 nM | 
CC(C)(C)OC(=O)NCCCNCCCCNCCCN |  |  | 86 nM
NCCCNCCCCNCCCNC(=O)C12CC3CC(CC(C3)C1)C2 |  |  | 672 nM
NCCCNCCCCNCCCN [SPERMINE] |  |  | 280 nM
NCCCNCCCCNCCCNC(=O)[C@@H](N)CC1CCCCC1 | 196 nM | 8000 nM | 
NCCCCNCCCN [SPERMIDINE] |  |  | 113 nM
NCCCNCCCCNCCCNC(=O)Cc1cccc2ccccc12 |  |  | 178 nM
NCCCNCCCCNCCCNC(=O)[C@@H]1CCCN1 | 38 nM | 93000 nM | 
N=C(N)NCCCCCCC(=O)NC(O)C(=O)NCCCCNCCCN (stereo not drawn) |  |  | 81 nM
CC(C)[C@@H](N)C(=O)NCCCNCCCCNCCCN | 58 nM | 9000 nM | 
NCCCNCCCCNCCCNC(=O)CCN | 65 nM | > 300000 nM | 
NCCCNCCCCNCCCNC(=O)[C@@H](N)Cc1ccccc1 | 443 nM | > 100000 nM | 
NCCCNCCCCNCCCNC(=O)[C@@H](N)CCC(N)=O | 177 nM | > 300000 nM | 
CCCCCC(=O)NCCCNCCCCNCCCN |  |  | 284 nM
NCCCCN [PUTRESCINE] |  |  | 1280 nM
NCCCNCCCCNCCCNC(=O)[C@@H](N)Cc1ccc(O)cc1 | 116 nM | 95000 nM | 
